Results reported in US9296704B2, “Substituted pyrimidines as protein kinase inhibitors” (CELGENE AVILOMICS RESEARCH, INC., priority 2007, dated 2016).

What was measured:
[1] = target: T1, JAK3 (Homo sapiens, UniProt P52333); test: Omnia assay for potency against JAK3; assay type: biochemical; conditions: read-out: JAK3 Inhibition
T1 sequence (P52333 1-1124): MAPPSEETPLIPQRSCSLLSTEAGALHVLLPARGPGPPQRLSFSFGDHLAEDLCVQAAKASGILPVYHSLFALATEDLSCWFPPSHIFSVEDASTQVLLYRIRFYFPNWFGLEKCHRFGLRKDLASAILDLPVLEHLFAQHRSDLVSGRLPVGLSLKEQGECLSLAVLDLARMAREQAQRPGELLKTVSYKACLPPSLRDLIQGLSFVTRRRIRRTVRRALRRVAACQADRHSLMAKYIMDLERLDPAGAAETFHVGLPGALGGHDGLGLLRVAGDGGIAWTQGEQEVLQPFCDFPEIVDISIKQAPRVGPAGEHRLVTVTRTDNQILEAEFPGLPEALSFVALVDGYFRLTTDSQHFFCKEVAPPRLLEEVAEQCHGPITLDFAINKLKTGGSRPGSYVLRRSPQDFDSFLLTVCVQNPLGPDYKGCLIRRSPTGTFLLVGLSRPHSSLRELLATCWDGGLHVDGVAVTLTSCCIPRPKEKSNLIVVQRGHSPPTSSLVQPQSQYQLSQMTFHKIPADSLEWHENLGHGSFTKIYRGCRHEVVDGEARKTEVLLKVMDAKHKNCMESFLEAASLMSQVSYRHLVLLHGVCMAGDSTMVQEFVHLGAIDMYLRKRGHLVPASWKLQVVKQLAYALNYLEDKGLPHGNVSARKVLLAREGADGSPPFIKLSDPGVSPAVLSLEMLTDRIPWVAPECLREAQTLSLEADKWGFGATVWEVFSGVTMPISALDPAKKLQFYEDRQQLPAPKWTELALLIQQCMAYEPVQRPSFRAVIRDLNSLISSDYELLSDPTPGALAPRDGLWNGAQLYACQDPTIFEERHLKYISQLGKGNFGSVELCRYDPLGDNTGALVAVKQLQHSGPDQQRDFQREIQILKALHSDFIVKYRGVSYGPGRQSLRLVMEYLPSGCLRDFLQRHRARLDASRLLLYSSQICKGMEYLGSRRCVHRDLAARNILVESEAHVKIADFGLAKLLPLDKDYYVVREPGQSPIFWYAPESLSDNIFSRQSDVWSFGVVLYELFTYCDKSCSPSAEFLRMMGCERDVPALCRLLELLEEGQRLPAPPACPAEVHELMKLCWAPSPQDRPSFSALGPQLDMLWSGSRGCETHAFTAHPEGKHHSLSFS
In short: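 Continuous-read Omnia kinase assay with 5 nM JAK3, 5 μM ATP (near apparent Km) and 5 μM Y12-Sox peptide in Tris pH 7.5/MgCl2 buffer; enzyme pre-incubated with compound 30 min at 27 °C. Fluorescence (ex360/em485) read over 60 min; initial velocities fitted against inhibitor concentration to give IC50.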

[2] = target: T2, EGFR (T790M/L858R) (Homo sapiens, UniProt P00533, L858R/T790M); test: Omnia continuous-read kinase assay, EGFR (T790M/L858R); assay type: biochemical; conditions: read-out: EGFR (T790M/L858R) inhibiton
T2 construct: purchased BPS Bioscience 40350
T2 sequence (P00533 25-1210 T790M/L858R): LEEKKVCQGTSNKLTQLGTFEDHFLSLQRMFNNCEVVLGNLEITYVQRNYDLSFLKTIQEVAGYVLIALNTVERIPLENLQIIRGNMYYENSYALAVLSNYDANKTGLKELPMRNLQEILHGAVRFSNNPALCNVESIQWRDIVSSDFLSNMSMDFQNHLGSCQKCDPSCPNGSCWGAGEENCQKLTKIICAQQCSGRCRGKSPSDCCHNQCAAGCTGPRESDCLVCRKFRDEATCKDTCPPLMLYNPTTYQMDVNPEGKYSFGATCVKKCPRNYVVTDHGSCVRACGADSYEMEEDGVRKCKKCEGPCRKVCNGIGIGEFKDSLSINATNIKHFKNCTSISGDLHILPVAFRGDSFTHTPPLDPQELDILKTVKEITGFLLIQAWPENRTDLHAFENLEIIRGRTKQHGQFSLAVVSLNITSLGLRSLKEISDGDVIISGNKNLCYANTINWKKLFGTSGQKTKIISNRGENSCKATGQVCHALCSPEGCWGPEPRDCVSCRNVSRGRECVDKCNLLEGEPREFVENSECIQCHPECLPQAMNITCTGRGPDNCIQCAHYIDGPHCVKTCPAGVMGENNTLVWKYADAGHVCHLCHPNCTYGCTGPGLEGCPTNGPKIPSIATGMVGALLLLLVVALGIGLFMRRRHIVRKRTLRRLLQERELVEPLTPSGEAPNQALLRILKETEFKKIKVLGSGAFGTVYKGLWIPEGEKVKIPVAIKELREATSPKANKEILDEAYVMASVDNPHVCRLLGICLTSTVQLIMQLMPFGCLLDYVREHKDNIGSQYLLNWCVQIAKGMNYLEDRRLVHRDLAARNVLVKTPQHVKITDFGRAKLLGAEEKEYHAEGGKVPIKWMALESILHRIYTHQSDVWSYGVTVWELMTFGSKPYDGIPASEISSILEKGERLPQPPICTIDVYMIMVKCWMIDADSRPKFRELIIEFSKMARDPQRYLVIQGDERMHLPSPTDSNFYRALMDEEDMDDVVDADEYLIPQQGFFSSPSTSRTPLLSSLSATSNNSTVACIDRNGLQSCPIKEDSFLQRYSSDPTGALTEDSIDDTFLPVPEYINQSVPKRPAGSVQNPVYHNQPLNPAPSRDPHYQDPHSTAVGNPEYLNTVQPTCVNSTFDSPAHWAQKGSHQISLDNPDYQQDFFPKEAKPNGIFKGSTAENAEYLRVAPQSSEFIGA
In short: (§1)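 Enzyme pre-incubated 30 min at 27 °C with compound, then ATP/Y12-Sox peptide added; fluorescence (ex360/em485) read continuously 60 min in 20 mM Tris pH 7.5, 5 mM MgCl2, 0.2 mM DTT. WT: 5 nM enzyme, […]; T790M/L858R: 3 nM enzyme, […]. IC50 from initial velocities, variable-slope fit.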

[3] = target: BTK (Homo sapiens, UniProt Q06187); test: Omnia assay for potency against BTK; assay type: biochemical; conditions: read-out: BTK Inhibition
BTK, sequence (Q06187 whole entry): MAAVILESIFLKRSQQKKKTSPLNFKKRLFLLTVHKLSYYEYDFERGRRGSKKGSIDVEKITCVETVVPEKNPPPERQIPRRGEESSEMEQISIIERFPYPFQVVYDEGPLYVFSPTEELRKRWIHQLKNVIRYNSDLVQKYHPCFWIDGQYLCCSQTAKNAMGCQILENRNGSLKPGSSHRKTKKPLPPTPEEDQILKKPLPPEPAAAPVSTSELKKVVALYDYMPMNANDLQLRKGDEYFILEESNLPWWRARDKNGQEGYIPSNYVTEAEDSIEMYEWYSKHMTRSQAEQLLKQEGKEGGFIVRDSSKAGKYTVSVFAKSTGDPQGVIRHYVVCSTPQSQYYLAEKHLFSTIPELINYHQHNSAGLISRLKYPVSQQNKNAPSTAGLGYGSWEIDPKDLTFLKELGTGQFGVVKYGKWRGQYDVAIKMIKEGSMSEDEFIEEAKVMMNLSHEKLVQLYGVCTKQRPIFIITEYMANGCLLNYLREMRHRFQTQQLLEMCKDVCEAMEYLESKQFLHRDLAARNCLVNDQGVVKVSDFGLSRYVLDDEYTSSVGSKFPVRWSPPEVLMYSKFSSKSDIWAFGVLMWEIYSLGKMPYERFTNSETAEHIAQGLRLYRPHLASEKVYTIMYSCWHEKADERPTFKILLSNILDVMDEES
In short: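 BTK (5 nM) was pre-incubated 30 min at 27° C with serially diluted compounds in Tris pH 7.5/MgCl2 buffer, then started with […] and Y5-Sox peptide 10 mM (ATP KMapp ~36 mM). Fluorescence (ex360/em485) was read continuously over 60 min. IC50 came from initial velocities using a variable-slope fit.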

[4] = target: ErbB2 (Homo sapiens, UniProt P04626); test: Z'-LYTE biochemical assay, ErbB2 kinase inhibition
Protocol: (§2) Compounds of the present invention were assayed as inhibitors of one or more of ErbB1, ErbB2, and/or ErbB4 in a manner substantially similar to the method described by Invitrogen Corp (Invitrogen Corporation, 1600 Faraday Avenue, Carlsbad, Calif., CA; http://www.invitrogen.com/downloads/Z-LYTE_Brochure—1205.pdf) using the Z′-LYTE™ biochemical assay procedure or similar biochemical assay. The Z′-LYTE™ biochemical assay employs a fluorescence-based, coupled-enzyme format and is based on the differential sensitivity of phosphorylated and non-phosphorylated peptides to proteolytic cleavage.

[5] = target: ErbB4 (Homo sapiens, UniProt Q15303); test: Z'-LYTE biochemical assay, ErbB4 kinase inhibition
Protocol: as §2

[6] = target: T3, EGFR (WT) (Homo sapiens, UniProt P00533); test: Omnia continuous-read kinase assay, EGFR (WT); assay type: biochemical; conditions: read-out: EGFR inhibtion
T3 construct: purchased Invitrogen PV3872
T3 sequence (P00533 25-1210): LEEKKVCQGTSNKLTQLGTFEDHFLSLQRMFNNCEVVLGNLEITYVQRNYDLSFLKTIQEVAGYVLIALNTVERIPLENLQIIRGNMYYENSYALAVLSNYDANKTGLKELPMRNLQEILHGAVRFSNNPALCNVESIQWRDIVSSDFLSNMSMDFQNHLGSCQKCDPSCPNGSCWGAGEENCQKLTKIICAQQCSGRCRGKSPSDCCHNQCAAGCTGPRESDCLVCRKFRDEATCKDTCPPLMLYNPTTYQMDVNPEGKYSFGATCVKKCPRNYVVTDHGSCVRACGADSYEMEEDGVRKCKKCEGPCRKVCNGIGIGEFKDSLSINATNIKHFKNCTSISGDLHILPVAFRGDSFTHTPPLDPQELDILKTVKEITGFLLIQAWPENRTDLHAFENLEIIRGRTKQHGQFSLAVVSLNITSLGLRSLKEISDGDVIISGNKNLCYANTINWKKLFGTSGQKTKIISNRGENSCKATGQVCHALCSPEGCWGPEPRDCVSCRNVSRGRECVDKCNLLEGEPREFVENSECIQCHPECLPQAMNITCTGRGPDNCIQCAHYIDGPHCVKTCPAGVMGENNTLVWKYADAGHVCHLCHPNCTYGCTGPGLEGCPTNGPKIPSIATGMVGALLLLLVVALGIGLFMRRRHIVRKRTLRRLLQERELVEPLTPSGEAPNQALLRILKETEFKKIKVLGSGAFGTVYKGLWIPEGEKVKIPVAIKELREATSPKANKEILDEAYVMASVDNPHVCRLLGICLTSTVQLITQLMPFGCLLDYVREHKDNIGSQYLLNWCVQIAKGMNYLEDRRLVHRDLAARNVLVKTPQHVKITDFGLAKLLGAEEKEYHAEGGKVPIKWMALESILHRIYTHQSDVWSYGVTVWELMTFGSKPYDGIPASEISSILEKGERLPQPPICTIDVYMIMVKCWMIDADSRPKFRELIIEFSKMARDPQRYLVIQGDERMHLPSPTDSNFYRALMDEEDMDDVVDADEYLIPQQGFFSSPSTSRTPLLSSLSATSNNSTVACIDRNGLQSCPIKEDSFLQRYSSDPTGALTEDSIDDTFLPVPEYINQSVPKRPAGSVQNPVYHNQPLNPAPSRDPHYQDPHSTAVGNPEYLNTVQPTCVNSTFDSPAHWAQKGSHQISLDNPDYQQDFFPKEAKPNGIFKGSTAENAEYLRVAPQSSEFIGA
In short: as §1

[7] = target: ErbB1 (Homo sapiens, UniProt P00533); test: Z'-LYTE biochemical assay, ErbB1 kinase inhibition; conditions: for inhibition at 0.01 µM: @ 10 nM
ErbB1, sequence (P00533 25-1210): as above
In short: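 Fluorescence-based coupled-enzyme Z′-LYTE format: kinase phosphorylation of a peptide substrate is read by differential protease cleavage of phosphorylated versus non-phosphorylated peptide.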

[8] = tested on: BTK signaling in Ramos cells; test: BTK Ramos cellular assay (PLCγ2 phosphorylation); assay type: cell-based; conditions: Homo sapiens; Ramos cells, PLCγ2 phosphorylation; read-out: BTK Inhibition
Protocol: Compounds 1-13 and (I-52) were assayed in Ramos human Burkitt lymphoma cells. Ramos cells were grown in suspension in T225 flasks, spun down, resuspended in 50 mls serum-free media and incubated for 1 hour. Compound was added to Ramos cells in serum free media to a final concentration of 1, 0.1, 0.01, or 0.001 μM. Ramos cells were incubated with compound for 1 hour, washed again and resuspended in 100 ul serum-free media. Cells were then stimulated with 1 μg of goat F(ab′)2 Anti-Human IgM and incubated on ice for 10 minutes to activate B cell receptor signaling pathways. After 10 minutes, the cells were washed once with PBS and then lysed on ice with Invitrogen Cell Extraction buffer. 16 μg total protein from lysates was loaded on gels and blots were probed for phosphorylation of the BTK substrate PLCγ2. […] Additional dose response inhibition of BTK signaling with I-13 is depicted in FIG. 9.

[9] = tested on: BTK in Ramos cells; test: Washout experiment with Ramos cells for BTK activity; assay type: cell-based, human; conditions: Ramos washout assay, 100 nM compound for 1 hour
Protocol: Ramos cells were serum starved for one hour in RPMI media+1% glutamine at 37° C. After starvation, Ramos cells were treated with 100 nM compound diluted in serum free RPMI media for 1 hour. After compound treatment, the media was removed and cells were washed with compound-free media. Subsequently, Ramos cells were washed every 2 hours and resuspended in fresh compound-free media. Cells were collected at specified timepoints, treated with 1 ug anti-human IgM (Southern Biotech cat #2022-01) for 10 minutes on ice to induce BCR signaling and then washed in PBS. Ramos cells were then lysed in Cell Extraction Buffer (Invitrogen FNN0011) supplemented with Roche complete protease inhibitor tablets (Roche 11697498001) and phosphatase inhibitors (Roche 04 906 837 001) and 18 ug total protein lysate was loaded in each lane. Inhibition of BTK kinase activity was assayed by measuring its substrate (PLCγ2) phosphorylation by western blot with phospho-specific antibodies from Cell Signaling Technologies cat#3871. FIG. 10 depicts the results of compound I-13 in the washout experiment at 0 hour, 4 hour, 6 hour, and 8 hour time points.

[10] = tested on: EGFR (ErbB1) in A431 human epidermoid carcinoma cells; test: Washout experiment for EGFR activity in A431 cells; assay type: cell-based; conditions: for enzyme inhibition after washout: A431 cells, 1 μM for 1 hr, EGF stimulation
Protocol: A431 human epidermoid carcinoma cells were grown in 6-well plates to 90% confluence and then incubated in serum-free media for 18 hr. Duplicate sets of cells were treated with 1 μM designated compound for 1 hr. One set of cells was then stimulated with 100 ng/ml EGF for 5 min, and extracts were made as described. The other set of cells was washed free of the compound with warmed compound-free medium, incubated for 2 hr, washed again, incubated another 2 hr, washed again, and then incubated another 2 hr washed again and incubated for additional 2 hr and then stimulated with EGF.

Row | Structure (SMILES) | IC50 [1] | IC50 [2] | IC50 [3] | inhibition at 1 µM [4] | inhibition at 1 µM [5] | IC50 [6] | inhibition at 0.01 µM [7] | IC50 [8] | inhibition at 0.1 µM ([7]; @ 100 nM) | inhibition at 0.01 µM ([4]; @ 10 nM) | inhibition at 0.1 µM ([4]; @ 100 nM) | inhibition at 0.01 µM ([5]; @ 10 nM) | inhibition at 0.1 µM ([5]; @ 100 nM) | inhibition at 1 µM [7] | BTK Inhibition Type [9] | enzyme inhibition after washout [10] | type of binding to ErbB1 (irreversible / reversible) ([10]; washout experiment, FIG. 2)
1 | C=CS(=O)(=O)Nc1cccc(Nc2cc(Nc3cccc(C)c3)ncn2)c1 [I-5, N-{3-[6-(3-methylphenylamino)-pyrimidin-4-ylamino]phenyl}-ethenesulfonamide] | ≤ 0.01 µM | ≤ 0.01 µM | ≤ 0.01 µM | 86% | 95% | ≤ 0.01 µM | 100% | 0.1 to 1 µM |  |  |  |  |  |  |  |  | 
2 | C=CS(=O)(=O)Nc1cccc(Nc2cc(Nc3ccc(OCc4cccc(F)c4)c(Cl)c3)ncn2)c1 [I-7, N-{3-[6-(3-chloro-4-(3-fluorophenyl)methoxy-phenylamino)-pyrimidin-4-ylamino]phenyl}-ethenesulfonamide] | 0.1 to 1 µM | 0.01 to 0.1 µM | 0.01 to 0.1 µM | 89% | 100% | ≤ 0.01 µM | 53% |  | 100% |  |  |  |  |  |  |  | 
3 | C=CC(=O)Nc1cccc(Nc2cc(Nc3ccc(OCc4ccccn4)c(Cl)c3)ncn2)c1 [I-16, N-(3-(6-(3-chloro-4-(pyridin-2-ylmethoxy)phenylamino)pyrimidin-4-ylamino)phenyl)-2-propenamide] | 0.01 to 0.1 µM | 0.01 to 0.1 µM | 0.01 to 0.1 µM |  |  | ≤ 0.01 µM |  |  |  | 24% | 87% | 26% | 93% | 98% |  |  | 
4 | Cc1cccc(Nc2cc(Nc3cccc(NC(=O)/C=C/CN(C)C)c3)ncn2)c1 [I-17, (E)-N-{3-[6-(3-methylphenylamino)-pyrimidin-4-ylamino]phenyl}-4-dimethylamino-2-butenamide] | 0.01 to 0.1 µM | 0.01 to 0.1 µM | ≤ 0.01 µM | 89% | 94% | ≤ 0.01 µM |  | ≥ 1 µM |  |  |  |  |  | 95% |  |  | 
5 | CN(C)C/C=C/C(=O)Nc1cccc(Nc2cc(Nc3ccc(OCc4ccccn4)c(Cl)c3)ncn2)c1 [I-19, (E)-N-(3-(6-(3-chloro-4-(pyridin-2-ylmethoxy)phenylamino)-pyrmidin-4-ylamino)phenyl)-4-(dimethylamino)but-2-enamide] | 0.1 to 1 µM | ≤ 0.01 µM | 0.01 to 0.1 µM | 98% | 97% | ≤ 0.01 µM |  |  |  |  |  |  |  | 96% |  |  | 
6 | CN(C)C/C=C/C(=O)Nc1cccc(Nc2cc(Oc3ccc(Oc4ccccc4)cc3)ncn2)n1 [I-82] | 0.01 to 0.1 µM |  | ≤ 0.01 µM |  |  | ≤ 0.01 µM |  | ≤ 0.01 µM |  |  |  |  |  |  | irreversible |  | 
7 | C=CC(=O)Nc1ccc(Nc2cc(Nc3cccc(Br)c3)ncn2)cc1 [I-93, N-(4-[6-(3-bromophenylamino)-pyrimidin-4-ylamino]phenyl)-2-propenamide] | ≥ 10 µM |  | 1 to 10 µM |  |  | ≤ 0.01 µM |  |  |  |  |  |  |  |  |  | washed away | reversibly binds to ErbB1
8 | CCC(=O)Nc1cccc(Nc2cc(Nc3cccc(Br)c3)ncn2)c1 [I^R-3, N-{3-[6-(3-bromophenylamino)-pyrimidin-4-ylamino]phenyl}-propionamide, reference compound] |  |  |  |  |  |  |  |  |  |  |  |  |  |  |  | washed away | 
